The results in this text go back to ChEMBL document CHEMBL5696442, “Discovery of type II inhibitors of TGFβ-activated kinase 1 (TAK1) and mitogen-activated protein kinase kinase kinase kinase 2 (MAP4K2)” (J Med Chem, 2015).

Active and inactive are the calls of the source. No cut-off for these calls is given here.

For test [1], the target named is Dual specificity tyrosine-phosphorylation-regulated kinase 2 (Homo sapiens) (UniProt Q92630). The test is described as follows: Inhibition of DYRK2 (unknown origin) at 1 uM by Ambit Kinomescan binding assay relative to control; values are per cent of control.
Sequence of Dual specificity tyrosine-phosphorylation-regulated kinase 2 (Homo sapiens) (Q92630 whole entry): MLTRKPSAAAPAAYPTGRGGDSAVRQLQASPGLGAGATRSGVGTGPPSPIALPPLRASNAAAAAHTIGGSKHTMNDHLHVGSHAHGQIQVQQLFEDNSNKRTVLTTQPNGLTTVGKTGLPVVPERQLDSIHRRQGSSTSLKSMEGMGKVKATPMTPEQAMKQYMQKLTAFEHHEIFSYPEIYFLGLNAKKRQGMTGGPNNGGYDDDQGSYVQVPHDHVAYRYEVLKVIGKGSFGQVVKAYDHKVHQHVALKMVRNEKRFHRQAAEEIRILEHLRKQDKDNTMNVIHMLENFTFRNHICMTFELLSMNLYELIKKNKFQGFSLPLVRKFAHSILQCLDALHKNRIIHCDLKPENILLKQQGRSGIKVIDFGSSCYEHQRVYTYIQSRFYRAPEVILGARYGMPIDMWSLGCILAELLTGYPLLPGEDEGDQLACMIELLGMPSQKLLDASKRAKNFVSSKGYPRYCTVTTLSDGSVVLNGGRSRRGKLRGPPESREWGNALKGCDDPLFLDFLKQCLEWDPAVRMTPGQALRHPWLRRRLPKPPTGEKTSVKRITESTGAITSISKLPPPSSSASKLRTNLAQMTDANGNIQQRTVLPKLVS
For test [2], the system named is Tyrosine-protein kinase ABL1 (Homo sapiens), P00519 [Q252H]. Nature of the test: Inhibition of nonphosphorylated ABL1 Q252H mutant (unknown origin) at 1 uM by Ambit Kinomescan binding assay relative to control.
In test [3] the target is Serine/threonine-protein kinase pim-1 (Homo sapiens) (UniProt P11309). The test is described as follows: Inhibition of PIM1 (unknown origin) at 1 uM by Ambit Kinomescan binding assay relative to control; values are per cent of control.
Sequence of Serine/threonine-protein kinase pim-1 (Homo sapiens) (P11309 whole entry, looked up): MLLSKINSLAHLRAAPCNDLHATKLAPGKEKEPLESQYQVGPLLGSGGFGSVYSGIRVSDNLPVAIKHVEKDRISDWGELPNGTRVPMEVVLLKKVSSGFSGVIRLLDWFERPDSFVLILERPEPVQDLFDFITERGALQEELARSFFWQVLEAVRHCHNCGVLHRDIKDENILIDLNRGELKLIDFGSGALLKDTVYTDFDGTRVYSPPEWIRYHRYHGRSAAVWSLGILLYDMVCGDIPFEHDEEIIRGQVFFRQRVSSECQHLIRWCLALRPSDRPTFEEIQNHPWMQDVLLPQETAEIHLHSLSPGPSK
In test [4] the target is T1, Phosphatidylinositol 5-phosphate 4-kinase type-2 beta (Homo sapiens) (UniProt P78356).
T1 sequence (whole entry): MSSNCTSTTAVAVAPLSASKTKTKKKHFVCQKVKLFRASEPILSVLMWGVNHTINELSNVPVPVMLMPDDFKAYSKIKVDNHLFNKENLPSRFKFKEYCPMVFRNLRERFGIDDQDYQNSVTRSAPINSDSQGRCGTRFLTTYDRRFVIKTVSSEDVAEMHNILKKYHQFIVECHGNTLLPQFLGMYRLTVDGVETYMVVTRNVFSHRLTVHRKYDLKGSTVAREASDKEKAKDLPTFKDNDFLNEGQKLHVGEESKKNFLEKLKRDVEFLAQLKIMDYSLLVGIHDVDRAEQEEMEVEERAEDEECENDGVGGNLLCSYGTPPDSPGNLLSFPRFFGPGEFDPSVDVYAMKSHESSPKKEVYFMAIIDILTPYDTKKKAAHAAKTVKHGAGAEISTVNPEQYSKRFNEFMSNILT
The test is described as follows: Inhibition of PIP5K2B (unknown origin) at 1 uM by Ambit Kinomescan binding assay relative to control; values are per cent of control.

The target in test [5] is Ephrin type-A receptor 3 (Homo sapiens) (UniProt P29320). Nature of the test: Inhibition of EPHA3 (unknown origin) at 10 uM by Ambit Kinomescan binding assay relative to control.
Sequence of Ephrin type-A receptor 3 (Homo sapiens) (P29320 whole entry): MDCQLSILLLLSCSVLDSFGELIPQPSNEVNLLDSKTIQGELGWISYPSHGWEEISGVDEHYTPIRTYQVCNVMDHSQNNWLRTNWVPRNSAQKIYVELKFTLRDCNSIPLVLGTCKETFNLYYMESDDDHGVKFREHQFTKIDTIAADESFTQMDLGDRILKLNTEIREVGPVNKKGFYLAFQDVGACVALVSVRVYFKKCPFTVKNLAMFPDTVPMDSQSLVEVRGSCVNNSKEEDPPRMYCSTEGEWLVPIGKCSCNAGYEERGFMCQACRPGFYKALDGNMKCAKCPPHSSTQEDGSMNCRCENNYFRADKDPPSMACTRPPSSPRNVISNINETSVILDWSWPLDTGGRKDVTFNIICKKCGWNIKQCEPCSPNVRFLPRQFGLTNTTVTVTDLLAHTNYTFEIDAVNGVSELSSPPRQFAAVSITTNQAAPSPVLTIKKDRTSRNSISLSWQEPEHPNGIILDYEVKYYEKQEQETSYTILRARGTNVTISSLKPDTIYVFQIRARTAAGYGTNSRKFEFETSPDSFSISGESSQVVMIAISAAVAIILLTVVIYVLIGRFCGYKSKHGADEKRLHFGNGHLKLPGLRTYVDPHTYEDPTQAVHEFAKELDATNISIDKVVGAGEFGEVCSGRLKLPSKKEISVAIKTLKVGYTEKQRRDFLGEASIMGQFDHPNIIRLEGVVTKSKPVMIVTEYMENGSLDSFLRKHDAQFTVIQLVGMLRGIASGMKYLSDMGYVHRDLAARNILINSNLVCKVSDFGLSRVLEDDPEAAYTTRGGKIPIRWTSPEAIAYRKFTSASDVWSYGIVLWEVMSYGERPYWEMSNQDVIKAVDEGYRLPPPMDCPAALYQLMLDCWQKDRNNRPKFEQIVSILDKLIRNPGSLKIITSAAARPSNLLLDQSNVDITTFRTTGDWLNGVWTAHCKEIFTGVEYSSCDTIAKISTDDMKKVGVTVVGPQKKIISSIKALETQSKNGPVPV
For test [6], the target named is Leukocyte tyrosine kinase receptor (Homo sapiens) (UniProt P29376). Nature of the test: Inhibition of LTK (unknown origin) at 10 uM by Ambit Kinomescan binding assay relative to control.
Sequence of Leukocyte tyrosine kinase receptor (Homo sapiens) (P29376 whole entry): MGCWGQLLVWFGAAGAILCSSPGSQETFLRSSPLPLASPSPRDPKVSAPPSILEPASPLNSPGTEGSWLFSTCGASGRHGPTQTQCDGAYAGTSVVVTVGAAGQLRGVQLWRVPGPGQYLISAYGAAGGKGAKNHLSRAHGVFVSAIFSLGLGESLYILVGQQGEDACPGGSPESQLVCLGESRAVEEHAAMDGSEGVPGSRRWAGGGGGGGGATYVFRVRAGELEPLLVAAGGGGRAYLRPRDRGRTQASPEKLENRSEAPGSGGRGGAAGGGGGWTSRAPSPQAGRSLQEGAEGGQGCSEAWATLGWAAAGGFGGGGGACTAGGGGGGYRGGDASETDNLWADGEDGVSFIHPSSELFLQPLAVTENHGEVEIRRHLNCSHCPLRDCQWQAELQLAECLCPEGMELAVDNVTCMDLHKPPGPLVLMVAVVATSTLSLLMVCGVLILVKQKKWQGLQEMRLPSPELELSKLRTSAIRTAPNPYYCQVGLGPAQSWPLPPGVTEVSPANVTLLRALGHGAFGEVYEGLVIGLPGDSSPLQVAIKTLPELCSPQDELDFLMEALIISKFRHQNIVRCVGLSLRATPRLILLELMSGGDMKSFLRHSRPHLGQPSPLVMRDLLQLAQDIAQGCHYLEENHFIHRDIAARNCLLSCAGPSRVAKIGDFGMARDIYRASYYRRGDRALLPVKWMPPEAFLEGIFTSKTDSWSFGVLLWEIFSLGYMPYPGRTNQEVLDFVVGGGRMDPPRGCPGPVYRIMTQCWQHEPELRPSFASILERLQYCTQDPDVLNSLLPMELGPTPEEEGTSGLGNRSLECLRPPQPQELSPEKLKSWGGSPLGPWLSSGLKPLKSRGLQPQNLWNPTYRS
For test [7], the target named is Wee1-like protein kinase (Homo sapiens) (UniProt P30291). Nature of the test: Inhibition of Wee1 K2 labeling site in human Huh-7 cells at 1 uM by KiNativ Profiling analysis relative to control. It is filed as cell-based.
Sequence of Wee1-like protein kinase (Homo sapiens) (P30291 whole entry, looked up): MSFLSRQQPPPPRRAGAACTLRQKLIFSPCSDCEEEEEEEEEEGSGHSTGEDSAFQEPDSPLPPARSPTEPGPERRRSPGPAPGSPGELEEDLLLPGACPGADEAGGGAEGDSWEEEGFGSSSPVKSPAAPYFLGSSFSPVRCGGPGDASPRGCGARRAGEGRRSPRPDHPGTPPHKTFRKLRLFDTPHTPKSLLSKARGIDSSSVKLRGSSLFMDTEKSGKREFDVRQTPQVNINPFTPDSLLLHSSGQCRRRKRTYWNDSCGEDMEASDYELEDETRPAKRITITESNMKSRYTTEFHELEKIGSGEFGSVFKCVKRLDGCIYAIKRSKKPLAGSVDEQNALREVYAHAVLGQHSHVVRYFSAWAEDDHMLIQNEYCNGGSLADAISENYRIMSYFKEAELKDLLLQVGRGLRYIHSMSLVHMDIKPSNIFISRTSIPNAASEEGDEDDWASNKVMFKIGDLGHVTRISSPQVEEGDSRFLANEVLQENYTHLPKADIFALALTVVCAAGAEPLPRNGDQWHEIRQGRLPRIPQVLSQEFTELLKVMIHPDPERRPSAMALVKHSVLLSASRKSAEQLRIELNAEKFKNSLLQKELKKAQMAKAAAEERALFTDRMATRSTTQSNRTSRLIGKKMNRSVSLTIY
Test [8] deals with T2, Dual specificity mitogen-activated protein kinase kinase 6 (Homo sapiens) (UniProt P52564).
T2 sequence (whole entry): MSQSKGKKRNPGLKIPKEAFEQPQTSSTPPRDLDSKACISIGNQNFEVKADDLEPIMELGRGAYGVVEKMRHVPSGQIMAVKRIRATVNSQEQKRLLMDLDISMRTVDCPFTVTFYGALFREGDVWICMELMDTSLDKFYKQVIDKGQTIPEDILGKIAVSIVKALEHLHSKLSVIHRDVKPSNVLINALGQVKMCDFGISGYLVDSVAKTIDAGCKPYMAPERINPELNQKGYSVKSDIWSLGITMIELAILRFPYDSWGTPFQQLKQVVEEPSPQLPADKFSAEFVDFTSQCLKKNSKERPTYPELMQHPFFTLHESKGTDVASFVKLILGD
The test is described as follows: Inhibition of MAP2K6 K2 labeling site in human Huh-7 cells at 10 uM by KiNativ Profiling analysis relative to control. The format is cell-based.

The target in test [9] is Serine/threonine-protein kinase PAK 2 (Homo sapiens) (UniProt Q13177). The test is described as follows: Inhibition of PAK2 (unknown origin) at 10 uM by Ambit Kinomescan binding assay.
Sequence of Serine/threonine-protein kinase PAK 2 (Homo sapiens) (Q13177 whole entry): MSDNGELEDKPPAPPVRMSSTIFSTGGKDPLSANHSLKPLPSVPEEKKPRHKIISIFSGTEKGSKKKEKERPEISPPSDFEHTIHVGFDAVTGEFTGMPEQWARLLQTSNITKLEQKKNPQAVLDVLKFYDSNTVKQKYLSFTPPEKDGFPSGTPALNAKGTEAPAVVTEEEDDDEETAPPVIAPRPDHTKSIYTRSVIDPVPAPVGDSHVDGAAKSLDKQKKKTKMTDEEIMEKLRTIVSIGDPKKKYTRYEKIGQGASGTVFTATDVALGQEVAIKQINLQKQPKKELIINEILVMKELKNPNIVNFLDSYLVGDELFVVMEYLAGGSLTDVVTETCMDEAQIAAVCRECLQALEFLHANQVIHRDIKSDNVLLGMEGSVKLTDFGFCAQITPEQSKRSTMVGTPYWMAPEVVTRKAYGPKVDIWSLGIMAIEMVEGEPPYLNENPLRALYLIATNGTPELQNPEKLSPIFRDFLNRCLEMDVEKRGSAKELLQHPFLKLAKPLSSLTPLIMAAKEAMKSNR
Test [10] addresses T2, Dual specificity mitogen-activated protein kinase kinase 6 (Homo sapiens). The test is described as follows: Inhibition of MAP2K6 ACT labeling site in human Huh-7 cells at 10 uM by KiNativ Profiling analysis relative to control. It is filed as cell-based.
Test [11] has as its target Dual specificity mitogen-activated protein kinase kinase 1 (Homo sapiens) (UniProt Q02750). The test is described as follows: Inhibition of MAP2K1 Lys1 labeling site in human A-375 cells at 5 uM by KiNativ Profiling analysis relative to control. The format is cell-based.
In test [12] the target is T3, Ephrin type-B receptor 2 (Homo sapiens) (UniProt P29323).
T3 sequence (whole entry): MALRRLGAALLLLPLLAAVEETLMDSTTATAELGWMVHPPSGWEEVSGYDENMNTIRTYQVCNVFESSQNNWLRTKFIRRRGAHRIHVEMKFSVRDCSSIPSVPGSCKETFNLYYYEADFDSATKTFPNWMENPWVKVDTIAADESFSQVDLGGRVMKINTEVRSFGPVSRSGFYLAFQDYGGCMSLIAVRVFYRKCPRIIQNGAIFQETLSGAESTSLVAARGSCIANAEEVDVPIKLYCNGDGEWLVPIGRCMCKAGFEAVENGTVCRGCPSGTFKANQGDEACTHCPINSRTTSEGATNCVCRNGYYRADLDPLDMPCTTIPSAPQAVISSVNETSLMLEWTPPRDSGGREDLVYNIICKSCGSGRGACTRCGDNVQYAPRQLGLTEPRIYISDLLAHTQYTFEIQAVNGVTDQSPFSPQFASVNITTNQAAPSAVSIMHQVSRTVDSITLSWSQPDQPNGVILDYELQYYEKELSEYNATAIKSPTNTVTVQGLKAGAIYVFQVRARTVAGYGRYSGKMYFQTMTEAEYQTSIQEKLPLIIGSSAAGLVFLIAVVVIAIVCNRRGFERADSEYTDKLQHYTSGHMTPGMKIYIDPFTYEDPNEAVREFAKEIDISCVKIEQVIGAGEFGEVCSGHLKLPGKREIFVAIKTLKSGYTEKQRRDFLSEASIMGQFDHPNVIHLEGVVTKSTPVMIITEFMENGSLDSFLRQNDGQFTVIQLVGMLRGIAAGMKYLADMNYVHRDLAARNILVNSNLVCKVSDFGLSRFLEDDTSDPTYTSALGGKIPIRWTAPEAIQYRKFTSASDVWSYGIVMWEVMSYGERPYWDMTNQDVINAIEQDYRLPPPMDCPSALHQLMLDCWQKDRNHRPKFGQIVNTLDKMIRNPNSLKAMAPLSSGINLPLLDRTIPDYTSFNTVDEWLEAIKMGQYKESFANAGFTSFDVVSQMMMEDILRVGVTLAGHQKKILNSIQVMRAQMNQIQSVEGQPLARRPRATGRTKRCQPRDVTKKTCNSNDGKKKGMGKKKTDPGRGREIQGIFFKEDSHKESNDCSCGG
The test is described as follows: Inhibition of EPHB2 (unknown origin) at 10 uM by Ambit Kinomescan binding assay relative to control.

The target in test [13] is Casein kinase I isoform epsilon (Homo sapiens) (UniProt P49674). Nature of the test: Inhibition of CK1epsilon Lys2 labeling site in human Huh-7 cell lysate at 1 uM by KiNativ Profiling analysis relative to control. The format is subcellular.
Sequence of Casein kinase I isoform epsilon (Homo sapiens) (P49674 whole entry, looked up, canonical isoform): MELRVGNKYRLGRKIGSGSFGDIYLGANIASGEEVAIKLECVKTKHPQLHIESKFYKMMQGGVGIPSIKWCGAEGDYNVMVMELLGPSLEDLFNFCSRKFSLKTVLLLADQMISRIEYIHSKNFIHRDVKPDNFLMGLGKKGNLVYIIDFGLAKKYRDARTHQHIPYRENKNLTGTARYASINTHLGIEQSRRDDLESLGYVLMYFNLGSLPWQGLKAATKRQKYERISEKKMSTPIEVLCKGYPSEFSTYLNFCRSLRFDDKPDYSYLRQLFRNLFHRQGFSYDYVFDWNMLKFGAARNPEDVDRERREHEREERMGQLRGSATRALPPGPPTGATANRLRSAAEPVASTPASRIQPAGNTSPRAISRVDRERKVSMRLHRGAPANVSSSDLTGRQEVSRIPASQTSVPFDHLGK
For test [14], the target named is Rho-associated protein kinase 1 (Homo sapiens) (UniProt Q13464). Nature of the test: Inhibition of ROCK1 Lys2 labeling site in human Huh-7 cells at 1 uM by KiNativ Profiling analysis relative to control. The format is cell-based.

Sequence of Dual specificity mitogen-activated protein kinase kinase 1 (Homo sapiens) (Q02750 whole entry): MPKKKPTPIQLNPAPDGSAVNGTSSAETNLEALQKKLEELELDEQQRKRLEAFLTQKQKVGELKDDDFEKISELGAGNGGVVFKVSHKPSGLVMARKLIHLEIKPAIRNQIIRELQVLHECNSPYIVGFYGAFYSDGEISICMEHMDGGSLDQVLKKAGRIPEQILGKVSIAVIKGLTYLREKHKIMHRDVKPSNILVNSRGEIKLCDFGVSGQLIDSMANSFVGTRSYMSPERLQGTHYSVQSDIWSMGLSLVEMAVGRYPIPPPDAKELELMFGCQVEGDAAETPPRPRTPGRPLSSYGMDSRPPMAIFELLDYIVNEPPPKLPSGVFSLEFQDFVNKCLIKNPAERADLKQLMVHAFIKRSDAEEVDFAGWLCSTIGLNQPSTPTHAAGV

Turning to `CCN1CCN(Cc2ccc(NC(=O)c3ccc(C)c(/C=C/c4cnc5[nH]ccc5c4OC)c3)cc2C(F)(F)F)CC1`, the residual activity in [1] was 68%; in [3], 100%; in test [4] it was 12%. Moreover, the inhibition in test [2] amounted to 1.4%.

Regarding `CCN1CCN(Cc2ccc(NC(=O)c3ccc(C)c(Oc4ccnc5[nH]ccc45)c3)cc2C(F)(F)F)CC1`, the inhibition in test [5] is 3.4%; in test [6], 1.2%; in test [7] it was 1.5%; in test [8] it was 19.3%; in test [10] it was 15.4%; in [11], 1.3%. For the same molecule, the inhibition in test [12] stood at 11%. The inhibition result in [9] was “inactive”.

As to `CNc1cc(Oc2cc(C(=O)Nc3cc(N4CCN(C)CC4)cc(C(F)(F)F)c3)ccc2C)ncn1`, the inhibition in test [13] was 0.6%; in test [14] it was -1%.
